22 compounds from US12336991B2, “Factor XIIA inhibitors” (UNIVERSITY OF LEEDS, priority 2018, dated 2025) can be followed below.

pKi: −log10 of the molar value. Bounds are passed on as bounds.

By pKi is commonly meant −log10 of the Ki, conventionally taken in molar units. A lower pKi goes with a large Ki.

What all share (format): biochemical
The target of one assay is T1, FXIIa (Homo sapiens, UniProt P00748).
T1 sequence (P00748 373-615 limits assumed): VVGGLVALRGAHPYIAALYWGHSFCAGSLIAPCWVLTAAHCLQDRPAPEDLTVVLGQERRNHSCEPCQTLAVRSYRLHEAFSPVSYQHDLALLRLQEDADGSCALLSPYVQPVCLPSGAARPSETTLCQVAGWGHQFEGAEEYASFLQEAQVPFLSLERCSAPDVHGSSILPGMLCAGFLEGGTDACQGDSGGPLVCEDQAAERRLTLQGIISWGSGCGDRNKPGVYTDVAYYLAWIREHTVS
T1 sequence (P00748 20-372 partner limits assumed): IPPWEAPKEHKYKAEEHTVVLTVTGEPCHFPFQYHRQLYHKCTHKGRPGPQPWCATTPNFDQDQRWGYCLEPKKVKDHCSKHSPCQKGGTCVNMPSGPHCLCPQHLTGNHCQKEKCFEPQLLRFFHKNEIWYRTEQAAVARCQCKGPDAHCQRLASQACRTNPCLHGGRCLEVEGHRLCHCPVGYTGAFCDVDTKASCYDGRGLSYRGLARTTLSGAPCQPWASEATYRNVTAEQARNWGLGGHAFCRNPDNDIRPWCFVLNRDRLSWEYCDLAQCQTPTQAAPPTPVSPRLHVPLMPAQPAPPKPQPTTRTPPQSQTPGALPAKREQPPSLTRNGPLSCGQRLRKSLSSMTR
As to the kind of experiment: Determination of Factor XIIa inhibition, chromogenic substrate S-2302 assay. The note with it: human FXIIa alpha. The essentials: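 FXIIa (10 nM) preincubated with compound 10 min at 37° C. in 50 mM Tris, 137 mM NaCl pH 7.4, 5% DMSO, top concentration 500 μM, then S-2302 added ([…]). Absorbance at 405 nm read kinetically for 3 h; IC50 from initial rates, converted to Ki by Cheng-Prusoff.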

A further assay has as its target T2, thrombin (Homo sapiens, UniProt P00734).
T2 construct: FXa (5 nM) and thrombin (5 nM)
As to the kind of experiment: Determination of selectivity: thrombin inhibition, chromogenic substrate GPR assay. Conditions: fold selectivity for FXIIa over thrombin. A digest of the protocol: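 Thrombin (5 nM) preincubated with compound 10 min at 37 °C in 50 mM Tris, 137 mM NaCl, pH 7.4, 5% DMSO, then GPR substrate ([…]) added. Absorbance at 405 nm read kinetically for 3 h; IC50 from initial rates, converted to Ki via Ki=IC50/(1+[S]/Km).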

A further assay addresses FXa (Homo sapiens, UniProt P00742). As to the kind of experiment: Determination of selectivity: FXa inhibition, chromogenic substrate S2765 assay. Conditions: fold selectivity for FXIIa over FXa. The essentials: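 Human FXa (5 nM) preincubated with compound (top 500 μM, 5% DMSO) 10 min at 37 °C in 50 mM Tris, 137 mM NaCl pH 7.4, then S2765 ([…]) added; A405 kinetics over 3 h at 37 °C. IC50 from initial rates, converted to Ki via Cheng-Prusoff.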

Chain of FXa (P00742 235-488 limits assumed): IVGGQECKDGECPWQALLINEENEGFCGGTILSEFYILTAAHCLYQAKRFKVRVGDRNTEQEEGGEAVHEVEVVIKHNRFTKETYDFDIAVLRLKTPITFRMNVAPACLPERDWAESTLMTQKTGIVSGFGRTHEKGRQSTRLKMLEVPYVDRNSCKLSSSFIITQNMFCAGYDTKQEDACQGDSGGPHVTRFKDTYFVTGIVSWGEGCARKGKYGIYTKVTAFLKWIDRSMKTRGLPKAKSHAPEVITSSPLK
Chain of FXa (P00742 41-179 partner limits assumed): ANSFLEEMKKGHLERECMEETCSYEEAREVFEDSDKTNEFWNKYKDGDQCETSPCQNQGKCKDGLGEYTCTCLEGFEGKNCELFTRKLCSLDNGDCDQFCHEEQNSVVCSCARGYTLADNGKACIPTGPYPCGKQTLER

`COc1ccc(C[C@@H]2C[C@@H](C(=O)NCc3ccc4c(c3)nnn4C)N(C(=O)[C@H]3CC(c4cn[nH]c4)CN3)C2)cc1` (stereo partly drawn) [Example M05454] gave a pKi on FXIIa of under 5.70. Moreover, the “Thrombin (human)/FXIIa alpha (human)” value on thrombin is given as “++ (fold selectivity value of 10 to 100)”. Also, at FXa, the “FXa (human)/FXIIa alpha (human)” value is “∘∘”.
In the same order, the values of `NCc1ccc(CNC(=O)C2CCCN2C(=O)[C@H](N)CCc2cccc(CO)c2)cc1` (stereo partly drawn) [Example M00805] are under 5.70, “+ (fold selectivity values less than 10)” and “∘∘”.
At FXIIa, `Cn1nnc2cc(CNC(=O)[C@@H]3C[C@H](c4ccccc4)CN3C(=O)[C@H](N)CCc3ccccc3)ccc21` [Example M05163] had a pKi of under 5.70. For the same compound, the “Thrombin (human)/FXIIa alpha (human)” value at thrombin is reported as “++ (fold selectivity value of 10 to 100)”. The “FXa (human)/FXIIa alpha (human)” value on FXa is listed as “∘∘”.
The like results for `CN(C)[C@H](CCC(=O)N1CCCC1)C(=O)N1C[C@H](Cc2cccnc2)C[C@H]1C(=O)NCc1ccc2c(cnn2C)c1` [Example M05223] were, in that order, 5.70 to 6.70, “+++ (fold selectivity values greater than 100)” and “∘∘∘”.
In the same order, the values of `COc1ccc(C[C@@H]2C[C@@H](C(=O)NCc3cc4ccncc4[nH]3)N(C(=O)[C@H]3C[C@@H](c4ccccc4)CN3)C2)cc1` [Example M00953] are over 6.70, “++ (fold selectivity value of 10 to 100)” and “∘∘∘”.
The like results for `Cn1nnc2cc(CNC(=O)[C@@H]3C[C@@H](Cc4ccc(C(F)(F)F)cc4)CN3C(=O)[C@H](N)CCC(=O)N3CCCC3)ccc21` [Example M05336] were, in that order, over 6.70, “+++ (fold selectivity values greater than 100)” and “∘∘∘”.
At FXIIa, `Cn1nnc2cc(CNC(=O)[C@@H]3C[C@H](NC(=O)Cc4ccccc4)CN3C(=O)[C@H](N)CCc3ccccc3)ccc21` [Example M05216] had a pKi of under 5.70. Moreover, on thrombin, the “Thrombin (human)/FXIIa alpha (human)” value is “++ (fold selectivity value of 10 to 100)”. Also, the “FXa (human)/FXIIa alpha (human)” value at FXa is reported as “∘∘”.
In the same order, the values of `COc1ccc(C[C@@H]2C[C@@H](C(=O)NCc3ccc4c(c3)nnn4C)N(C(=O)[C@H]3C[C@@H](n4ccccc4=O)CN3)C2)cc1` [Example M00958] are 5.70 to 6.70, “+++ (fold selectivity values greater than 100)” and “∘∘∘”.
In the same order, the values of `Cn1nnc2cc(CNC(=O)[C@@H]3CC(Cc4cccc(C#N)c4)CN3C(=O)[C@H](N)CCC(=O)N3CCCC3)ccc21` (stereo partly drawn) [Example M05319] are 5.70 to 6.70, “+++ (fold selectivity values greater than 100)” and “∘∘∘”.
The like results for `COc1ccc(C[C@@H]2C[C@@H](C(=O)NCc3ccc4c(c3)nnn4C)N(C(=O)[C@H](N)CCC(=O)N3CC[C@H](F)C3)C2)cc1` [Example M05400] were, in that order, over 6.70, “+++ (fold selectivity values greater than 100)” and “∘∘∘”.
In turn, `Cn1nnc2cc(CNC(=O)[C@@H]3C[C@H](Cc4cccc(Cl)c4)CN3C(=O)[C@H](N)CCC(=O)N3CCCC3)ccc21` [Example M05210, (2S,4S)-1-((R)-2-amino-5-oxo-5-pyrrolidin-1-yl-pentanoyl)-4-(3-chloro-benzyl)-pyrrolidine-2-carboxylic acid (1-methyl-1H-benzotriazol-5-ylmethyl)-amide] gave a pKi at FXIIa of 5.70 to 6.70. Moreover, at thrombin, the “Thrombin (human)/FXIIa alpha (human)” value is listed as “+++ (fold selectivity values greater than 100)”. Also, on FXa, the “FXa (human)/FXIIa alpha (human)” value is “∘∘∘”.
In the same order, the values of `NCc1ccc(CNC(=O)[C@@H]2C[C@@H](Cc3ccc(Cl)cc3)CN2C(=O)[C@H](N)CCc2ccccc2)cc1` [Example M05117] are 5.70 to 6.70, “++ (fold selectivity value of 10 to 100)” and “∘∘∘”.
Take `COc1ccc(C[C@@H]2C[C@@H](C(=O)NCc3cc4cnccc4[nH]3)N(C(=O)[C@H]3C[C@@H](C(=O)N4CCCC4(C)C)CCN3)C2)cc1` [Example M00967]: at FXIIa, the pKi is over 6.70. Moreover, the “Thrombin (human)/FXIIa alpha (human)” value on thrombin is on record as “+++ (fold selectivity values greater than 100)”. In addition, the “FXa (human)/FXIIa alpha (human)” value on FXa is reported as “∘∘∘”.
Compound `Cn1nnc2cc(CNC(=O)[C@@H]3CC(NCC4CCCCC4)CN3C(=O)[C@H](N)CCc3ccccc3)ccc21` (stereo partly drawn) [Example M05204] showed a pKi at FXIIa of under 5.70. Also, the “Thrombin (human)/FXIIa alpha (human)” value on thrombin was “++ (fold selectivity value of 10 to 100)”. The “FXa (human)/FXIIa alpha (human)” value at FXa is recorded as “∘∘”.
The like results for `COc1ccc(C[C@@H]2C[C@@H](C(=O)NCc3ccc4c(c3)nnn4C)N(C(=O)[C@H]3CC(c4ccccc4C(F)(F)F)CN3)C2)cc1` (stereo partly drawn) [Example M05397] were, in that order, 5.70 to 6.70, “+++ (fold selectivity values greater than 100)” and “∘∘∘”.
The like results for `Cc1ccc(C[C@@H]2C[C@@H](C(=O)NCc3cc4cnccc4[nH]3)N(C(=O)[C@H](N)CCC(=O)N3CCCC3)C2)cc1` [Example M00968] were, in that order, over 6.70, “+++ (fold selectivity values greater than 100)” and “∘∘∘”.
The like results for `COc1ccc(C[C@@H]2C[C@@H](C(=O)NCc3ccc4c(c3)nnn4C)N(C(=O)[C@H](N)CCC(=O)N3CCCC3(C)C)C2)cc1` [Example M05450] were, in that order, over 6.70, “+++ (fold selectivity values greater than 100)” and “∘∘∘”.
`Nc1nccc2cc(CNC(=O)[C@@H]3C[C@@H](Cc4cccc(Cl)c4)CN3C(=O)[C@H](N)CCC(=O)N3CCCC3)ccc12` [Example M05266] showed a pKi at FXIIa of 5.70 to 6.70. On thrombin, the “Thrombin (human)/FXIIa alpha (human)” value was “+ (fold selectivity values less than 10)”. In addition, at FXa, the “FXa (human)/FXIIa alpha (human)” value is on record as “∘∘”.
In the same order, the values of `COc1ccc(C[C@@H]2C[C@@H](C(=O)NCc3cc4ccncc4[nH]3)N(C(=O)[C@H](N)CCC(=O)N3CCCC3)C2)cc1` [Example M00952] are over 6.70, “+++ (fold selectivity values greater than 100)” and “∘∘∘”.
At FXIIa, `N[C@H](CCC(=O)N1CCCC1)C(=O)N1C[C@H](Cc2ccc(C(F)(F)F)cc2)C[C@H]1C(=O)NCc1cc2cnccc2[nH]1` [Example M00969] showed a pKi of over 6.70. Moreover, the “Thrombin (human)/FXIIa alpha (human)” value at thrombin was “+++ (fold selectivity values greater than 100)”. Also, the “FXa (human)/FXIIa alpha (human)” value on FXa was “∘∘∘”.
In turn, `Cn1nnc2cc(CNC(=O)[C@@H]3C[C@@H](Cc4ccc(C(F)(F)F)cc4)CN3C(=O)[C@H]3C[C@@H](c4ccccc4)CN3)ccc21` [Example M05334] had a pKi at FXIIa of 5.70 to 6.70. Further, the “Thrombin (human)/FXIIa alpha (human)” value on thrombin is “++ (fold selectivity value of 10 to 100)”. Also, on FXa, the “FXa (human)/FXIIa alpha (human)” value is “∘∘”.
In turn, `Cn1nnc2cc(CNC(=O)[C@@H]3C[C@@H](Cc4ccncc4)CN3C(=O)[C@H](N)CCC(=O)N3CCCC3)ccc21` [Example M05189] showed a pKi at FXIIa of 5.70 to 6.70. In addition, the “Thrombin (human)/FXIIa alpha (human)” value on thrombin was “+++ (fold selectivity values greater than 100)”. The “FXa (human)/FXIIa alpha (human)” value at FXa was “∘∘∘”.
